{
  "source": "the NIST ThermoML archive (doi:10.1016/j.jct.2009.04.002)",
  "settings": "Liquid",
  "note": "Several values for one entry are separate records, joined by “and”; a condition that tells them apart may be missing. Identical values can stand only once. Numbers after ± are expanded uncertainties.",
  "data": [
    {"smiles": "CC(C)CCCCCCCOC(=O)c1ccccc1C(=O)OCCCCCCCC(C)C", "values": [
      {"measurement": "viscosity", "setting": "278.15 K, Rotational Automated Viscometer", "result": "404.6 ± 8.4 mPa·s and 413.1 ± 8.4 mPa·s and 412.2 ± 8.3 mPa·s"},
      {"measurement": "mass density", "setting": "278.15 K, SVM3000 rotational viscometer", "result": "977.3 ± 14 kg/m3 and 977.5 ± 14 kg/m3 and 977.1 ± 14 kg/m3"},
      {"measurement": "mass density", "setting": "283.15 K, 100 kPa, Vibrating tube method", "result": "973.4 ± 1.4 kg/m3 and 973.5 ± 1.4 kg/m3 and 973.1 ± 1.4 kg/m3"},
      {"measurement": "mass density", "setting": "283.15 K, 1000 kPa, Vibrating tube method", "result": "973.7 ± 1.4 kg/m3 and 974 ± 1.4 kg/m3 and 973.6 ± 1.4 kg/m3"},
      {"measurement": "mass density", "setting": "283.15 K, 5000 kPa, Vibrating tube method", "result": "975.9 ± 1.4 kg/m3 and 976.2 ± 1.4 kg/m3 and 975.7 ± 1.4 kg/m3"},
      {"measurement": "mass density", "setting": "283.15 K, 10000 kPa, Vibrating tube method", "result": "978.4 ± 1.4 kg/m3 and 978.8 ± 1.4 kg/m3 and 978.3 ± 1.4 kg/m3"},
      {"measurement": "mass density", "setting": "283.15 K, 20000 kPa, Vibrating tube method", "result": "983.5 ± 1.4 kg/m3 and 983.9 ± 1.4 kg/m3 and 983.4 ± 1.4 kg/m3"},
      {"measurement": "mass density", "setting": "283.15 K, 30000 kPa, Vibrating tube method", "result": "988.3 ± 1.4 kg/m3 and 988.6 ± 1.4 kg/m3 and 988.1 ± 1.4 kg/m3"},
      {"measurement": "mass density", "setting": "283.15 K, 40000 kPa, Vibrating tube method", "result": "992.8 ± 1.4 kg/m3 and 993.1 ± 1.4 kg/m3 and 992.7 ± 1.4 kg/m3"},
      {"measurement": "mass density", "setting": "283.15 K, 50000 kPa, Vibrating tube method", "result": "997.2 ± 1.4 kg/m3 and 997.5 ± 1.4 kg/m3 and 997 ± 1.4 kg/m3"},
      {"measurement": "mass density", "setting": "283.15 K, 60000 kPa, Vibrating tube method", "result": "1001.4 ± 1.4 kg/m3 and 1001.7 ± 1.4 kg/m3 and 1001.3 ± 1.4 kg/m3"},
      {"measurement": "mass density", "setting": "283.15 K, 70000 kPa, Vibrating tube method", "result": "1005.4 ± 1.4 kg/m3 and 1005.8 ± 1.4 kg/m3"},
      {"measurement": "viscosity", "setting": "283.15 K, Rotational Automated Viscometer", "result": "261.2 ± 5.5 mPa·s and 267 ± 5.4 mPa·s and 266.2 ± 5.4 mPa·s"},
      {"measurement": "mass density", "setting": "283.15 K, SVM3000 rotational viscometer", "result": "973.8 ± 14 kg/m3 and 974 ± 14 kg/m3 and 973.5 ± 14 kg/m3"},
      {"measurement": "viscosity", "setting": "288.15 K, Rotational Automated Viscometer", "result": "175.9 ± 3.7 mPa·s and 179.4 ± 3.6 mPa·s and 178.9 ± 3.6 mPa·s"},
      {"measurement": "mass density", "setting": "288.15 K, SVM3000 rotational viscometer", "result": "970.2 ± 14 kg/m3 and 970.4 ± 14 kg/m3 and 969.9 ± 14 kg/m3"},
      {"measurement": "viscosity", "setting": "293.15 K, Rotational Automated Viscometer", "result": "122.3 ± 2.5 mPa·s and 124.5 ± 2.5 mPa·s and 124.4 ± 2.5 mPa·s"},
      {"measurement": "mass density", "setting": "293.15 K, SVM3000 rotational viscometer", "result": "966.7 ± 14 kg/m3 and 966.9 ± 14 kg/m3 and 966.4 ± 14 kg/m3"},
      {"measurement": "mass density", "setting": "298.15 K, 100 kPa, Vibrating tube method", "result": "963 ± 1.4 kg/m3 and 963.2 ± 1.4 kg/m3 and 962.8 ± 1.4 kg/m3"},
      {"measurement": "mass density", "setting": "298.15 K, 1000 kPa, Vibrating tube method", "result": "963.4 ± 1.4 kg/m3 and 963.8 ± 1.4 kg/m3 and 963.3 ± 1.4 kg/m3"},
      {"measurement": "mass density", "setting": "298.15 K, 5000 kPa, Vibrating tube method", "result": "965.7 ± 1.4 kg/m3 and 966.1 ± 1.4 kg/m3"},
      {"measurement": "mass density", "setting": "298.15 K, 10000 kPa, Vibrating tube method", "result": "968.4 ± 1.4 kg/m3 and 968.9 ± 1.4 kg/m3 and 968.5 ± 1.4 kg/m3"},
      {"measurement": "mass density", "setting": "298.15 K, 20000 kPa, Vibrating tube method", "result": "973.7 ± 1.4 kg/m3 and 974.2 ± 1.4 kg/m3 and 973.8 ± 1.4 kg/m3"},
      {"measurement": "mass density", "setting": "298.15 K, 30000 kPa, Vibrating tube method", "result": "978.7 ± 1.4 kg/m3 and 979.1 ± 1.4 kg/m3"},
      {"measurement": "mass density", "setting": "298.15 K, 40000 kPa, Vibrating tube method", "result": "983.4 ± 1.4 kg/m3 and 983.8 ± 1.4 kg/m3"},
      {"measurement": "mass density", "setting": "298.15 K, 50000 kPa, Vibrating tube method", "result": "988 ± 1.4 kg/m3 and 988.3 ± 1.4 kg/m3 and 987.9 ± 1.4 kg/m3"},
      {"measurement": "mass density", "setting": "298.15 K, 60000 kPa, Vibrating tube method", "result": "992.4 ± 1.4 kg/m3 and 992.8 ± 1.4 kg/m3 and 992.3 ± 1.4 kg/m3"},
      {"measurement": "mass density", "setting": "298.15 K, 70000 kPa, Vibrating tube method", "result": "996.6 ± 1.4 kg/m3 and 997 ± 1.4 kg/m3"},
      {"measurement": "viscosity", "setting": "298.15 K, Rotational Automated Viscometer", "result": "87.52 ± 1.8 mPa·s and 89.06 ± 1.8 mPa·s and 88.94 ± 1.8 mPa·s"},
      {"measurement": "mass density", "setting": "298.15 K, SVM3000 rotational viscometer", "result": "963.2 ± 14 kg/m3 and 963.4 ± 14 kg/m3 and 962.9 ± 14 kg/m3"},
      {"measurement": "viscosity", "setting": "303.15 K, 100 kPa, Falling or rolling sphere viscometry", "result": "65 ± 5.3 mPa·s and 64.6 ± 5.2 mPa·s"},
      {"measurement": "viscosity", "setting": "303.15 K, 1000 kPa, Falling or rolling sphere viscometry", "result": "66.4 ± 5.4 mPa·s and 66 ± 5.3 mPa·s"},
      {"measurement": "viscosity", "setting": "303.15 K, 5000 kPa, Falling or rolling sphere viscometry", "result": "72.9 ± 5.9 mPa·s and 72.6 ± 5.9 mPa·s"},
      {"measurement": "viscosity", "setting": "303.15 K, 10000 kPa, Falling or rolling sphere viscometry", "result": "82 ± 6.7 mPa·s and 81.7 ± 6.7 mPa·s"},
      {"measurement": "viscosity", "setting": "303.15 K, 20000 kPa, Falling or rolling sphere viscometry", "result": "103 ± 9", "unit": "mPa·s"},
      {"measurement": "viscosity", "setting": "303.15 K, 30000 kPa, Falling or rolling sphere viscometry", "result": "130 ± 11 mPa·s and 129 ± 11 mPa·s"},
      {"measurement": "viscosity", "setting": "303.15 K, 40000 kPa, Falling or rolling sphere viscometry", "result": "162 ± 14", "unit": "mPa·s"},
      {"measurement": "viscosity", "setting": "303.15 K, 50000 kPa, Falling or rolling sphere viscometry", "result": "202 ± 18 mPa·s and 201 ± 18 mPa·s"}
    ]}
  ]
}
